Measurements: ChEMBL document CHEMBL1130801, “PF1022A--a novel anthelmintic cyclooctadepsipeptide. Modification and exchange of the N-methyl leucine residues” (Bioorg Med Chem Lett, 1998)

Columns and labels:
[1] = Partition coefficient in n-octanol/ water system at pH= 7.0; assay type: physicochemical
[2] = tested on: Ovis aries; assay: Anthelmintic activity against Haemonchus contortus nematode in sheep was determined as a function of 50-75% egg reduction after p.o. administration; assay type: functional
[3] = tested on: Ovis aries; assay: Anthelmintic activity against Haemonchus contortus nematode in sheep was determined as a function of >/= 90% egg reduction after i.v. administration; assay type: functional
[4] = tested on: Ovis aries; assay: Anthelmintic activity against Haemonchus contortus nematode in sheep was determined as a function of </= 50% egg reduction after i.v. administration; assay type: functional
[5] = tested on: Ovis aries; assay: Anthelmintic activity against Haemonchus contortus nematode in sheep was determined as a function of 75-90% egg reduction after p.o. administration; assay type: functional
[6] = tested on: Ovis aries; assay: Anthelmintic activity against Haemonchus contortus nematode in sheep was determined as a function of </=50% egg reduction after p.o. administration; assay type: functional
[7] = tested on: Ovis aries; assay: Anthelmintic activity against Haemonchus contortus nematode in sheep was determined as a function of >/= 90% egg reduction after p.o. administration; assay type: functional
[8] = tested on: Ovis aries; assay: Anthelmintic activity against Haemonchus contortus nematode in sheep was determined as a function of 75 to >/= 90% egg reduction after p.o. administration; assay type: functional

| Compound | logD [1] | Activity [3] | Activity [4] | other results |
| --- | --- | --- | --- | --- |
| C[C@@H]1OC(=O)[C@H](C)N(C)C(=O)[C@@H](Cc2ccccc2)OC(=O)[C@H](C)N(C)C(=O)[C@@H](C)OC(=O)[C@H](C)N(C)C(=O)[C@@H](Cc2ccccc2)OC(=O)[C@H](C)N(C)C1=O | 3.1 |  | 0.5 |  |
| CC(C)C[C@H]1C(=O)O[C@H](Cc2ccccc2)C(=O)N(C(C)C)[C@@H](CC(C)C)C(=O)O[C@H](C)C(=O)N(C(C)C)[C@@H](CC(C)C)C(=O)O[C@H](Cc2ccccc2)C(=O)N(C(C)C)[C@@H](CC(C)C)C(=O)O[C@@H](C)C(=O)N1C(C)C | 8.6 |  |  | Activity [5]: 1 |
| C[C@@H]1OC(=O)[C@H](Cc2ccccc2)N(C)C(=O)[C@@H](Cc2ccccc2)OC(=O)[C@H](Cc2ccccc2)N(C)C(=O)[C@@H](C)OC(=O)[C@H](Cc2ccccc2)N(C)C(=O)[C@@H](Cc2ccccc2)OC(=O)[C@H](Cc2ccccc2)N(C)C1=O | 5.9 |  | 5 |  |
| CC(C)C[C@H]1C(=O)O[C@H](Cc2ccccc2)C(=O)N(C)[C@@H](CC(C)C)C(=O)O[C@H](C)C(=O)N(C)[C@@H](CC(C)C)C(=O)O[C@H](Cc2ccccc2)C(=O)N(C)[C@@H](CC(C)C)C(=O)OC(C)C(=O)N1C (single isomer, unassigned) | 5.9 | 0.1 |  | Activity [7]: 0.1 |
| CCC[C@H]1C(=O)O[C@H](Cc2ccccc2)C(=O)N(C)[C@@H](CCC)C(=O)O[C@H](C)C(=O)N(C)[C@@H](CCC)C(=O)O[C@H](Cc2ccccc2)C(=O)N(C)[C@@H](CCC)C(=O)O[C@@H](C)C(=O)N1C | 5.1 |  | 0.5 |  |
| CCCN1C(=O)[C@H](C)OC(=O)[C@H](CC(C)C)N(CCC)C(=O)[C@@H](Cc2ccccc2)OC(=O)[C@H](CC(C)C)N(CCC)C(=O)[C@@H](C)OC(=O)[C@H](CC(C)C)N(CCC)C(=O)[C@@H](Cc2ccccc2)OC(=O)[C@@H]1CC(C)C | 8.4 |  |  | Activity [2]: 0.25 |
| CCN1C(=O)[C@H](C)OC(=O)[C@H](CC(C)C)N(CC)C(=O)[C@@H](Cc2ccccc2)OC(=O)[C@H](CC(C)C)N(CC)C(=O)[C@@H](C)OC(=O)[C@H](CC(C)C)N(CC)C(=O)[C@@H](Cc2ccccc2)OC(=O)[C@@H]1CC(C)C | 7.2 |  |  | Activity [8]: 0.25 |
| CCC[C@H]1C(=O)O[C@H](Cc2ccccc2)C(=O)N(C)[C@@H](CC(C)C)C(=O)O[C@H](C)C(=O)N(C)[C@@H](CC(C)C)C(=O)O[C@H](Cc2ccccc2)C(=O)N(C)[C@@H](CCC)C(=O)O[C@@H](C)C(=O)N1C | 5.5 | 0.5 |  | Activity [6]: 0.1 |

Second part, led by results:

| logD [1] | Compound | Activity [3] | Activity [4] | other results |
| --- | --- | --- | --- | --- |
| 5.5 | CC(C)[C@H]1C(=O)O[C@H](Cc2ccccc2)C(=O)N(C)[C@@H](C(C)C)C(=O)O[C@H](C)C(=O)N(C)[C@@H](C(C)C)C(=O)O[C@H](Cc2ccccc2)C(=O)N(C)[C@@H](C(C)C)C(=O)O[C@@H](C)C(=O)N1C | 1 |  | Activity [2]: 0.25 |
| 6.6 | CCC(C)[C@H]1C(=O)O[C@H](Cc2ccccc2)C(=O)N(C)[C@@H](C(C)CC)C(=O)O[C@H](C)C(=O)N(C)[C@@H](C(C)CC)C(=O)O[C@H](Cc2ccccc2)C(=O)N(C)[C@@H](C(C)CC)C(=O)O[C@@H](C)C(=O)N1C (stereo partly specified) | 1 |  | Activity [6]: 5 |
| 4.6 | CC(C)C[C@H]1C(=O)O[C@H](Cc2ccccc2)C(=O)N(C)[C@@H](C)C(=O)O[C@@H](C)C(=O)N(C)[C@@H](C)C(=O)O[C@H](Cc2ccccc2)C(=O)N(C)[C@@H](CC(C)C)C(=O)O[C@H](C)C(=O)N1C |  | 0.5 |  |
